Source: BindingDB's records for doi:10.1016/j.bmcl.2010.09.117 (University of London, 2010)

Target: Signal transducer and activator of transcription 3 (Homo sapiens, UniProt P40763)
Test: Inhibition of STAT3 in human HeLa cells by luciferase reporter assay

Signal transducer and activator of transcription 3, sequence (P40763 whole entry): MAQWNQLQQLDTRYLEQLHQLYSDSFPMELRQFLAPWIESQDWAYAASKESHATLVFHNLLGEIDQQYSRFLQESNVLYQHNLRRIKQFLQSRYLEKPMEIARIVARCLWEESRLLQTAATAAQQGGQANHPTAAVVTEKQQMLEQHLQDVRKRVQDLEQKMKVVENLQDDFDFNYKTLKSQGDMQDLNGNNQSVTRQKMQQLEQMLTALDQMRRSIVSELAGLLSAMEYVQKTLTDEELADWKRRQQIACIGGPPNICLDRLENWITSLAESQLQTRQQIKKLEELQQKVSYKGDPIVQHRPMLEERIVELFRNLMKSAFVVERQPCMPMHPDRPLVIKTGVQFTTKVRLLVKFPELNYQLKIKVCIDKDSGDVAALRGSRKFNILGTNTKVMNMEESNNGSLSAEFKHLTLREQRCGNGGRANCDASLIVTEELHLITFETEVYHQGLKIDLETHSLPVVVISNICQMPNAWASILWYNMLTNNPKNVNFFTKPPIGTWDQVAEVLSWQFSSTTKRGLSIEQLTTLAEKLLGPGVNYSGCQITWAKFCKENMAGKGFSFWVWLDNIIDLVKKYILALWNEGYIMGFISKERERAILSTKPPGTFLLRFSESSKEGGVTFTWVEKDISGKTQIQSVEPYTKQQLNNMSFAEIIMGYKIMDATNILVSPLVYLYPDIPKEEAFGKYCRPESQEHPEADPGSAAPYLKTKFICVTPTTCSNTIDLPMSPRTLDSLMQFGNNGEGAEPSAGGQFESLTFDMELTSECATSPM

EC50: 15 µM
SMILES: Cc1ccc(-c2sc(C(=O)NCc3cccs3)cc2S(=O)(=O)N2CCCC2)cc1 [4-(pyrrolidin-1-ylsulfonyl)-N-(thiophen-2-ylmethyl)-5-p-tolylthiophene-2-carboxamide]
